One assay concerns 843126-344-R-J1-PDC complex spheroid viability. Briefly: Anticancer human tumor 843126-344-R-J1-PDC patient-derived melanoma cell line growth inhibition [POLQ]. As to conditions: second compound 0.316 µM; first compound 1 µM; active compounds read low. A digest of the protocol:
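PDC + HUVEC + MSC complex spheroids; POLQ inhibitors ± partner drugs; top conc. at/near clinical Cmax, else 10 microM (SN-38 1 microM), half-log dilutions; 37 degrees C, 5% CO2.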
With `C#Cc1c(F)ccc2cc(O)cc(-c3ncc4c(N5CC6CCC(C5)N6)nc(OCC56CCCN5CC(F)C6)nc4c3F)c12` (configuration not stated) + Cc1cccc(N(C)C(=O)C2C(O)CCN2c2nc(C)cc(C(F)(F)F)c2C#N)c1, the viability, T/C (usually the ratio of treated to control) is 80.2%.

For `CC1COCCN1c1cc(C2(O)CC3CCC(C2)O3)c2cnn(-c3ccn[nH]3)c2n1` (configuration not stated) + Cc1cccc(N(C)C(=O)C2C(O)CCN2c2nc(C)cc(C(F)(F)F)c2C#N)c1, the viability, T/C is 45.2%.

In the case of `O=C(Nc1ccc(O)c(NS(=O)(=O)c2ccc(F)cc2)c1)c1ccc(-c2ccccc2)cc1` + Cc1cccc(N(C)C(=O)C2C(O)CCN2c2nc(C)cc(C(F)(F)F)c2C#N)c1, the viability, T/C was 99.2%.

For `COc1cccc2c1C(=O)c1c(O)c3c(c(O)c1C2=O)CC(O)(C(=O)CO)CC3OC1CC(N)C(O)C(C)O1` (configuration not stated) + Nc1ccc(C#CCN(C(=O)Cc2ncc(C(F)(F)F)cc2C(F)(F)F)c2ccc(F)cc2)nn1, the viability, T/C was 12.2%.

Staying with this assay, now noted: second compound 0.316 µM; first compound 3.16 µM; active compounds read low.
Turning to `C#Cc1c(F)ccc2cc(O)cc(-c3ncc4c(N5CC6CCC(C5)N6)nc(OCC56CCCN5CC(F)C6)nc4c3F)c12` (configuration not stated) + Cc1cccc(N(C)C(=O)C2C(O)CCN2c2nc(C)cc(C(F)(F)F)c2C#N)c1, the viability, T/C was 75.4%.

With `CC1COCCN1c1cc(C2(O)CC3CCC(C2)O3)c2cnn(-c3ccn[nH]3)c2n1` (configuration not stated) + Cc1cccc(N(C)C(=O)C2C(O)CCN2c2nc(C)cc(C(F)(F)F)c2C#N)c1, the viability, T/C was 34%.

Take `O=C(Nc1ccc(O)c(NS(=O)(=O)c2ccc(F)cc2)c1)c1ccc(-c2ccccc2)cc1` + Cc1cccc(N(C)C(=O)C2C(O)CCN2c2nc(C)cc(C(F)(F)F)c2C#N)c1: the viability, T/C was 84.8%.

Regarding `COc1cccc2c1C(=O)c1c(O)c3c(c(O)c1C2=O)CC(O)(C(=O)CO)CC3OC1CC(N)C(O)C(C)O1` (configuration not stated) + Nc1ccc(C#CCN(C(=O)Cc2ncc(C(F)(F)F)cc2C(F)(F)F)c2ccc(F)cc2)nn1, the viability, T/C was 2.99%.

Still in this assay, the particulars now being: second compound 0.316 µM; first compound 10 µM; active compounds read low.
`C#Cc1c(F)ccc2cc(O)cc(-c3ncc4c(N5CC6CCC(C5)N6)nc(OCC56CCCN5CC(F)C6)nc4c3F)c12` (configuration not stated) + Cc1cccc(N(C)C(=O)C2C(O)CCN2c2nc(C)cc(C(F)(F)F)c2C#N)c1: the viability, T/C was 77.4%.

In the case of `CC1COCCN1c1cc(C2(O)CC3CCC(C2)O3)c2cnn(-c3ccn[nH]3)c2n1` (configuration not stated) + Cc1cccc(N(C)C(=O)C2C(O)CCN2c2nc(C)cc(C(F)(F)F)c2C#N)c1, the viability, T/C is 19.2%.

For `O=C(Nc1ccc(O)c(NS(=O)(=O)c2ccc(F)cc2)c1)c1ccc(-c2ccccc2)cc1` + Cc1cccc(N(C)C(=O)C2C(O)CCN2c2nc(C)cc(C(F)(F)F)c2C#N)c1, the viability, T/C is 70.2%.

Consider `COc1cccc2c1C(=O)c1c(O)c3c(c(O)c1C2=O)CC(O)(C(=O)CO)CC3OC1CC(N)C(O)C(C)O1` (configuration not stated) + Nc1ccc(C#CCN(C(=O)Cc2ncc(C(F)(F)F)cc2C(F)(F)F)c2ccc(F)cc2)nn1, for which the viability, T/C was 2.71%.

The same assay, now with this note: second compound 1 µM; first compound 0.0316 µM; active compounds read low.
For the molecule `C#Cc1c(F)ccc2cc(O)cc(-c3ncc4c(N5CC6CCC(C5)N6)nc(OCC56CCCN5CC(F)C6)nc4c3F)c12` (configuration not stated) + Cc1cccc(N(C)C(=O)C2C(O)CCN2c2nc(C)cc(C(F)(F)F)c2C#N)c1, the viability, T/C was 77.1%.

Turning to `CC1COCCN1c1cc(C2(O)CC3CCC(C2)O3)c2cnn(-c3ccn[nH]3)c2n1` (configuration not stated) + Cc1cccc(N(C)C(=O)C2C(O)CCN2c2nc(C)cc(C(F)(F)F)c2C#N)c1, the viability, T/C is 99.3%.

For the molecule `O=C(Nc1ccc(O)c(NS(=O)(=O)c2ccc(F)cc2)c1)c1ccc(-c2ccccc2)cc1` + Cc1cccc(N(C)C(=O)C2C(O)CCN2c2nc(C)cc(C(F)(F)F)c2C#N)c1, the viability, T/C is 95.7%.

With `COc1cccc2c1C(=O)c1c(O)c3c(c(O)c1C2=O)CC(O)(C(=O)CO)CC3OC1CC(N)C(O)C(C)O1` (configuration not stated) + Nc1ccc(C#CCN(C(=O)Cc2ncc(C(F)(F)F)cc2C(F)(F)F)c2ccc(F)cc2)nn1, the viability, T/C is 78.5%.

The assay is the same for the next values; noted with them: second compound 1 µM; first compound 0.1 µM; active compounds read low.
As for `C#Cc1c(F)ccc2cc(O)cc(-c3ncc4c(N5CC6CCC(C5)N6)nc(OCC56CCCN5CC(F)C6)nc4c3F)c12` (configuration not stated) + Cc1cccc(N(C)C(=O)C2C(O)CCN2c2nc(C)cc(C(F)(F)F)c2C#N)c1, the viability, T/C is 106%.

On to `CC1COCCN1c1cc(C2(O)CC3CCC(C2)O3)c2cnn(-c3ccn[nH]3)c2n1` (configuration not stated) + Cc1cccc(N(C)C(=O)C2C(O)CCN2c2nc(C)cc(C(F)(F)F)c2C#N)c1, for which the viability, T/C was 62.8%.

Take `O=C(Nc1ccc(O)c(NS(=O)(=O)c2ccc(F)cc2)c1)c1ccc(-c2ccccc2)cc1` + Cc1cccc(N(C)C(=O)C2C(O)CCN2c2nc(C)cc(C(F)(F)F)c2C#N)c1: the viability, T/C was 88.1%.

`COc1cccc2c1C(=O)c1c(O)c3c(c(O)c1C2=O)CC(O)(C(=O)CO)CC3OC1CC(N)C(O)C(C)O1` (configuration not stated) + Nc1ccc(C#CCN(C(=O)Cc2ncc(C(F)(F)F)cc2C(F)(F)F)c2ccc(F)cc2)nn1: the viability, T/C is 79%.

The assay is the same for the next values; noted with them: second compound 1 µM; first compound 0.316 µM; active compounds read low.
Turning to `C#Cc1c(F)ccc2cc(O)cc(-c3ncc4c(N5CC6CCC(C5)N6)nc(OCC56CCCN5CC(F)C6)nc4c3F)c12` (configuration not stated) + Cc1cccc(N(C)C(=O)C2C(O)CCN2c2nc(C)cc(C(F)(F)F)c2C#N)c1, the viability, T/C was 82.8%.

`CC1COCCN1c1cc(C2(O)CC3CCC(C2)O3)c2cnn(-c3ccn[nH]3)c2n1` (configuration not stated) + Cc1cccc(N(C)C(=O)C2C(O)CCN2c2nc(C)cc(C(F)(F)F)c2C#N)c1: the viability, T/C was 56.9%.

On to `O=C(Nc1ccc(O)c(NS(=O)(=O)c2ccc(F)cc2)c1)c1ccc(-c2ccccc2)cc1` + Cc1cccc(N(C)C(=O)C2C(O)CCN2c2nc(C)cc(C(F)(F)F)c2C#N)c1, for which the viability, T/C is 96.6%.

On to `COc1cccc2c1C(=O)c1c(O)c3c(c(O)c1C2=O)CC(O)(C(=O)CO)CC3OC1CC(N)C(O)C(C)O1` (configuration not stated) + Nc1ccc(C#CCN(C(=O)Cc2ncc(C(F)(F)F)cc2C(F)(F)F)c2ccc(F)cc2)nn1, for which the viability, T/C was 52.6%.

The same assay, now with this note: second compound 1 µM; first compound 1 µM; active compounds read low.
Regarding `C#Cc1c(F)ccc2cc(O)cc(-c3ncc4c(N5CC6CCC(C5)N6)nc(OCC56CCCN5CC(F)C6)nc4c3F)c12` (configuration not stated) + Cc1cccc(N(C)C(=O)C2C(O)CCN2c2nc(C)cc(C(F)(F)F)c2C#N)c1, the viability, T/C is 89.9%.

In the case of `CC1COCCN1c1cc(C2(O)CC3CCC(C2)O3)c2cnn(-c3ccn[nH]3)c2n1` (configuration not stated) + Cc1cccc(N(C)C(=O)C2C(O)CCN2c2nc(C)cc(C(F)(F)F)c2C#N)c1, the viability, T/C was 40.8%.

`O=C(Nc1ccc(O)c(NS(=O)(=O)c2ccc(F)cc2)c1)c1ccc(-c2ccccc2)cc1` + Cc1cccc(N(C)C(=O)C2C(O)CCN2c2nc(C)cc(C(F)(F)F)c2C#N)c1: the viability, T/C was 99.9%.

As to `COc1cccc2c1C(=O)c1c(O)c3c(c(O)c1C2=O)CC(O)(C(=O)CO)CC3OC1CC(N)C(O)C(C)O1` (configuration not stated) + Nc1ccc(C#CCN(C(=O)Cc2ncc(C(F)(F)F)cc2C(F)(F)F)c2ccc(F)cc2)nn1, the viability, T/C was 14.2%.

The assay is the same for the next values; noted with them: second compound 1 µM; first compound 3.16 µM; active compounds read low.
Regarding `C#Cc1c(F)ccc2cc(O)cc(-c3ncc4c(N5CC6CCC(C5)N6)nc(OCC56CCCN5CC(F)C6)nc4c3F)c12` (configuration not stated) + Cc1cccc(N(C)C(=O)C2C(O)CCN2c2nc(C)cc(C(F)(F)F)c2C#N)c1, the viability, T/C was 91.2%.

Turning to `CC1COCCN1c1cc(C2(O)CC3CCC(C2)O3)c2cnn(-c3ccn[nH]3)c2n1` (configuration not stated) + Cc1cccc(N(C)C(=O)C2C(O)CCN2c2nc(C)cc(C(F)(F)F)c2C#N)c1, the viability, T/C was 32.7%.

As for `O=C(Nc1ccc(O)c(NS(=O)(=O)c2ccc(F)cc2)c1)c1ccc(-c2ccccc2)cc1` + Cc1cccc(N(C)C(=O)C2C(O)CCN2c2nc(C)cc(C(F)(F)F)c2C#N)c1, the viability, T/C was 92.4%.

Consider `COc1cccc2c1C(=O)c1c(O)c3c(c(O)c1C2=O)CC(O)(C(=O)CO)CC3OC1CC(N)C(O)C(C)O1` (configuration not stated) + Nc1ccc(C#CCN(C(=O)Cc2ncc(C(F)(F)F)cc2C(F)(F)F)c2ccc(F)cc2)nn1, for which the viability, T/C was 3.21%.

The assay is the same for the next values; noted with them: second compound 1 µM; first compound 10 µM; active compounds read low.
Regarding `C#Cc1c(F)ccc2cc(O)cc(-c3ncc4c(N5CC6CCC(C5)N6)nc(OCC56CCCN5CC(F)C6)nc4c3F)c12` (configuration not stated) + Cc1cccc(N(C)C(=O)C2C(O)CCN2c2nc(C)cc(C(F)(F)F)c2C#N)c1, the viability, T/C was 79%.

`CC1COCCN1c1cc(C2(O)CC3CCC(C2)O3)c2cnn(-c3ccn[nH]3)c2n1` (configuration not stated) + Cc1cccc(N(C)C(=O)C2C(O)CCN2c2nc(C)cc(C(F)(F)F)c2C#N)c1: the viability, T/C is 21%.

For the molecule `O=C(Nc1ccc(O)c(NS(=O)(=O)c2ccc(F)cc2)c1)c1ccc(-c2ccccc2)cc1` + Cc1cccc(N(C)C(=O)C2C(O)CCN2c2nc(C)cc(C(F)(F)F)c2C#N)c1, the viability, T/C was 72.6%.

In the case of `COc1cccc2c1C(=O)c1c(O)c3c(c(O)c1C2=O)CC(O)(C(=O)CO)CC3OC1CC(N)C(O)C(C)O1` (configuration not stated) + Nc1ccc(C#CCN(C(=O)Cc2ncc(C(F)(F)F)cc2C(F)(F)F)c2ccc(F)cc2)nn1, the viability, T/C was 2.34%.

The same assay, now with this note: second compound 3.16 µM; first compound 0.0316 µM; active compounds read low.
`C#Cc1c(F)ccc2cc(O)cc(-c3ncc4c(N5CC6CCC(C5)N6)nc(OCC56CCCN5CC(F)C6)nc4c3F)c12` (configuration not stated) + Cc1cccc(N(C)C(=O)C2C(O)CCN2c2nc(C)cc(C(F)(F)F)c2C#N)c1: the viability, T/C was 83.5%.

As for `CC1COCCN1c1cc(C2(O)CC3CCC(C2)O3)c2cnn(-c3ccn[nH]3)c2n1` (configuration not stated) + Cc1cccc(N(C)C(=O)C2C(O)CCN2c2nc(C)cc(C(F)(F)F)c2C#N)c1, the viability, T/C was 91.2%.

With `O=C(Nc1ccc(O)c(NS(=O)(=O)c2ccc(F)cc2)c1)c1ccc(-c2ccccc2)cc1` + Cc1cccc(N(C)C(=O)C2C(O)CCN2c2nc(C)cc(C(F)(F)F)c2C#N)c1, the viability, T/C is 97.5%.

For the molecule `COc1cccc2c1C(=O)c1c(O)c3c(c(O)c1C2=O)CC(O)(C(=O)CO)CC3OC1CC(N)C(O)C(C)O1` (configuration not stated) + Nc1ccc(C#CCN(C(=O)Cc2ncc(C(F)(F)F)cc2C(F)(F)F)c2ccc(F)cc2)nn1, the viability, T/C is 82.4%.

Staying with this assay, now noted: second compound 3.16 µM; first compound 0.1 µM; active compounds read low.
Regarding `C#Cc1c(F)ccc2cc(O)cc(-c3ncc4c(N5CC6CCC(C5)N6)nc(OCC56CCCN5CC(F)C6)nc4c3F)c12` (configuration not stated) + Cc1cccc(N(C)C(=O)C2C(O)CCN2c2nc(C)cc(C(F)(F)F)c2C#N)c1, the viability, T/C was 80.3%.

In the case of `CC1COCCN1c1cc(C2(O)CC3CCC(C2)O3)c2cnn(-c3ccn[nH]3)c2n1` (configuration not stated) + Cc1cccc(N(C)C(=O)C2C(O)CCN2c2nc(C)cc(C(F)(F)F)c2C#N)c1, the viability, T/C is 80.5%.

Values taken from PubChem BioAssay AID1963837 (Molecular Pharmacology Branch, DTP, NCI, 2024).
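Also: spheroids exposed to drugs for seven days before readout.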
